# Experiments:
# Type in all cases: cell-based
# [1] = tested on: HEK293 cells; assay: Transfection of luciferase plasmid into HEK293 cells
# Method: All tissue culture reagents were obtained from Life Technologies Inc. HEK 293 cells were seeded at 2-3×10^5 cells per well in Nunc six-well culture plates, 24 hours prior to transfection. The cells were seeded in 2 mls Dulbeccos Modified Eagle medium containing Earles salts and supplemented with 10% v/v foetal bovine serum (=complete medium). The cells were grown at 37° C. in 5% CO2 in a humidified atmosphere. 6 ug DNA (“luciferase control plasmid” from Promega Corp.) were dissolved in 100 ul serum free medium (OPTI-MEM®). The peptide-based gemini compounds were made up at 1 mg/ml in tissue culture grade water and then diluted in OPTI-MEM® to the appropriate concentration to a final volume of […]. The DNA and gemini solutions were mixed (to a total volume of 200 ul; final concentrations of 5, 25, 50, 100, 150, 200, 250 and 300 ug/ml) and left at room temperature for 15 minutes. The DNA/gemini mix was placed onto the cells in each well and left in contact for 18-20 hours. The cells were then washed twice with phophate buffered saline prior to 1 ml of fresh complete medium being added. Cells were incubated for a further 24 hours prior to lysis and luciferase activity assayed.
# All luciferase activity assays were performed using the Canberra Packard (Berkshire, UK) Luclite kit according to the manufacturer's instructions with the exception that the cells in each well were resuspended in 1 ml lysis buffer and 10 ul aliquots mixed with 100 ul of the luciferase substrate. The reaction mix was left for a 15 minutes adaptation period in the dark before counting for 5 minutes in a Top Count scintillation counter. Luciferase activity is measured as counts per second (CPS) from the scintillation counter. Four independent counts were taken per well.
# Control transfections were set up with no DNA, CaPO4, an anionic gemini compound (1) and the commercially available lipofection reagents LipofectAmine™ and Lipotaxi™ at the manufacturers recommended concentrations (10, 25, 50, 75, 125 ug/ml and 175, 250, 325, 400 and 500 ug/ml respectively).
# [2] = tested on: CHO-K1 cells; assay: Transfection of luciferase plasmid into CHO-K1 cells
# Method: CHO-K1 cells (ATCC: CRL-9618) were seeded into T25-culture flasks (Corning-Costar Buckinghamshire, UK), at 7×10^5 cells per flask, 24 hours prior to transfection. The CHO-K1 cells were seeded in 5 ml MEM alpha medium with ribonucleosides and deoxyribonucleosides and supplemented with 1×L-glutamine and 10% v/v foetal bovine serum (complete medium). The cells were grown at 37° C. in 5% CO2 in a humidified atmosphere.
# For transfection, 5 ug DNA (luciferase control plasmid) was incubated with the gemini compounds in water (final volume 400 μl). The peptide-based gemini compounds were made up at 1 mg ml^−1 in tissue culture grade water and then diluted to the appropriate concentration to a total volume of 200 μl. Following a 30 minute room temperature incubation, 2.6 ml OPTI-MEM® medium was added and the solution placed on the cells. Following an overnight incubation at 37° C., the transfection solution was replaced with complete medium and the cells incubated at 37° C. 24 hours post transfection the cells were detached from the flask and seeded into 96-well plates at a density of 0.5×10^5 cells per well and incubated for a further 24 hours at 37° C. Luciferase reporter gene assays were performed according to the manufacturers instructions (Roche Diagnostics, Mannheim, Germany) approximately 48 hours post transfection. The plates were left for a 15 minutes adaption period in the dark before counting for 60 seconds in a TopCount NXT counter (Canberra Packard). An average of eight wells were counted per transfection.
# Control transfections were set up with no DNA, an anionic gemini compound and the commercially available reagent LipofectAmine PLUS™.
# [3] = tested on: CHO-K1 cells; assay: Transfection of luciferase plasmid into CHO-K1 cells in combination with supplements (DOPE, PLUS)
# Method: The transfection ability of the gemini compounds could be further enhanced by the addition of a neutral carrier, for example, dioleyl phosphatidylethanolamine (DOPE) (Farhood, H., et al (1985) Biochim. Biophys. Acta 1235 289) or a complexing reagent, for example, PLUS compound (Life Technologies Inc.). […] Transfection mediated by compound 55 with DOPE in a 2:1 ratio and the addition of 11.6 ul of PLUS compound lead to a mean count of 6.5×10^5 cps representing a 12-fold increase of luciferase activity in comparison to compound 55 alone. Incubation of the PLUS compound with the DNA and combination with compound 55 alone also lead to a 4-fold increase.
# [4] = compound 55 with DOPE 2:1 plus 11.6 ul PLUS compound
compound,measurement,setting,value
CCCCCCCCCCCCNC(=O)C(CO)NC(=O)C(CSCCSCC(NC(=O)C(N)CCCCNC(=O)C(N)CCCCN)C(=O)NC(CO)C(=O)NCCCCCCCCCCCC)NC(=O)C(N)CCCCNC(=O)C(N)CCCCN.Cl.Cl.Cl.Cl (stereo not shown) [Compound 55],Efficiency in facilitating transfection of the luciferase plasmid,[1]; at concentrations above 150 ug/ml,very efficient
same,Most effective (peak) concentration for transfection,[1]; luciferase control plasmid,300 µg/mL
same,"Luciferase activity, mean count at peak efficiency","[1]; luciferase control plasmid, at the agent's most effective concentration, mean of 4 independent counts","about 45,000 cps"
same,Efficiency in facilitating transfection of the luciferase plasmid,[2],very efficient
same,"Luciferase activity, mean count at most effective concentration","[2]; 5 ug luciferase control plasmid, mean of 8 wells",about 2.4×10^5 cps
same,Most effective (peak) concentration for transfection,[2]; luciferase control plasmid,30 µM
same,Increase of luciferase activity,"[3]; PLUS compound incubated with the DNA, combined with compound 55 alone (no DOPE)",4 fold
same,Increase of luciferase activity,[3]; compound 55 and DOPE at 2:1 ratio,9 fold
same,Increase of luciferase activity in comparison to compound 55 alone,[3]; [4],12 fold
same,"Luciferase activity, mean count",[3]; [4],6.5×10^5 cps
